IC50 data for 86 compounds are collected here from PubChem BioAssay AID1117324 (Cheminformatics & Chemogenomics Research Group (CCRG), …, 2015).

The structures appear in SMILES notation. The source made the active and inactive calls. The rule behind the calls is not given here.

The experiment relates to VEGF-stimulated ADSC/ECFC co-culture, nuclear area imaging. The experiment is described as follows: nuclear area loss in endothelial-stromal co-culture, dose response, cell-based, VEGF stimulation, IC50 (AID 1117324).
On to `Cc1c(C)c2c(c(C)c1O)CCC(C)(COc1ccc(CC3SC(=O)NC3=O)cc1)O2` (stereo unspecified), for which the IC50 (usually the midpoint of a concentration-inhibition curve) was > 10 µM (inactive). In the case of `Cc1cccc(C)c1NC(=O)CC12CCCN1CCC2` it was > 10 µM (inactive); in that of `CCCOC(=O)c1cc(O)c(O)c(O)c1`, > 10 µM (inactive); in that of `CN(C)CCCN1c2ccccc2Sc2ccc(Cl)cc21`, > 10 µM (inactive). In the case of `CCCCCN=C(N)N/N=C/c1c[nH]c2ccc(OC)cc12` it was 7.17 µM (inactive); in that of `O=C1C(I)=CC(=C(c2cc(I)c(O)c(I)c2)c2ccccc2C(=O)O)C=C1I`, > 10 µM (inactive). In the case of `CCC1Nc2cc(Cl)c(S(N)(=O)=O)cc2S(=O)(=O)N1` (stereo unspecified) it was > 10 µM (inactive). With `COc1cccc2c1C(=O)c1c(O)c3c(c(O)c1C2=O)C[C@@](O)(C(=O)CO)C[C@@H]3O[C@H]1C[C@H](N)[C@H](O)[C@H](C)O1`, the IC50 was 0.114 µM.

For the compound `O=[N+]([O-])c1ccc(Oc2ccc(N=C=S)cc2)cc1`, the IC50 was > 10 µM (inactive). For the compound `Clc1ccc(COC(Cn2ccnc2)c2ccc(Cl)cc2Cl)cc1` (stereo unspecified), the IC50 was 9.93 µM (inactive). In the case of `C[C@]12CC[C@@H]3c4ccc(O)cc4CC[C@H]3[C@@H]1CC[C@@H]2OC(=O)CCC1CCCC1` it was > 10 µM (inactive). In the case of `O=C(O)CCC(=O)OC[C@@H](NC(=O)C(Cl)Cl)[C@H](O)c1ccc([N+](=O)[O-])cc1` it was > 10 µM (inactive); in that of `CCC(C(=O)OCCOCCN(CC)CC)c1ccccc1` (stereo unspecified), > 10 µM (inactive); in that of `CN(C)C(=S)SSC(=S)N(C)C`, > 10 µM (inactive). In the case of `O=C1OC(OC(=O)c2cccnc2Nc2cccc(C(F)(F)F)c2)c2ccccc21` (stereo unspecified) it was > 10 µM (inactive); in that of `COc1ccc2cc3[n+](cc2c1OC)CCc1cc2c(cc1-3)OCO2`, > 10 µM (inactive). In the case of `CN(C)c1ccc(C(=C2C=CC(=[N+](C)C)C=C2)c2ccccc2)cc1`, the IC50 is 1.72 µM. In the case of `COC1=C(OC)C(=O)C(CCCCCCCCCCO)=C(C)C1=O` it was > 10 µM (inactive); in that of `CCCCCCCCCCCCNCCNCCNCC(=O)O`, > 10 µM (inactive); in that of `COC(=O)C1=C(C)NC(C)=C(C(=O)OCCN2CCN(C(c3ccccc3)c3ccccc3)CC2)C1c1cccc([N+](=O)[O-])c1` (stereo unspecified), > 10 µM (inactive).

For `CCCSS/C(CCO)=C(\C)N(C=O)Cc1cnc(C)nc1N`, the IC50 is > 10 µM (inactive). For the compound `Clc1ccccc1C(c1ccccc1)(c1ccccc1)n1ccnc1`, the IC50 was > 10 µM (inactive). In the case of `O=C(NOCC1CC1)c1ccc(F)c(F)c1Nc1ccc(I)cc1Cl` it was > 10 µM (inactive); in that of `COc1ccccc1N1CCN(CC(O)COc2cc(OC)c(OC)c(OC)c2)CC1` (stereo unspecified), > 10 µM (inactive); in that of `COCC(C)N(C(=O)CCl)c1c(C)csc1C` (stereo unspecified), > 10 µM (inactive).

Turning to `CN1CCC[C@@H]1CCO[C@](C)(c1ccccc1)c1ccc(Cl)cc1`, the IC50 is > 10 µM (inactive). In the case of `CC(=O)[C@]1(O)Cc2c(O)c3c(c(O)c2[C@@H](O[C@H]2C[C@H](N)[C@H](O)[C@H](C)O2)C1)C(=O)c1ccccc1C3=O` it was 0.538 µM. On to `CC(CC=O)CCCC(C)(C)O` (stereo unspecified), for which the IC50 is > 10 µM (inactive). In the case of `O=C(O)c1ccc(-n2nc(-c3ccccc3O)nc2-c2ccccc2O)cc1` it was > 10 µM (inactive); in that of `CCCCCCOC(=O)c1cccnc1`, > 10 µM (inactive); in that of `CC(=O)c1ccc(OCC(=O)N2CCCCC2)cc1`, > 10 µM (inactive). In the case of `CN(Cc1cnc2nc(N)nc(N)c2n1)c1ccc(C(=O)N[C@@H](CCC(=O)O)C(=O)O)cc1` it was > 10 µM (inactive); in that of `O=[N+]([O-])c1cccc(S(=O)(=O)NCCNS(=O)(=O)c2cccc([N+](=O)[O-])c2)c1`, > 10 µM (inactive); in that of `CSc1ccc2c(c1)C(N1CCN(C)CC1)Cc1ccccc1S2` (stereo unspecified), > 10 µM (inactive). In the case of `CNC(=O)Oc1cccc2ccccc12` it was > 10 µM (inactive).

Consider `Clc1ccc(C(Cn2ccnc2)OCc2ccc(Sc3ccccc3)cc2)c(Cl)c1` (stereo unspecified), for which the IC50 was > 10 µM (inactive).

Take `O=c1[nH]c(=O)n([C@H]2C[C@H](O)[C@@H](CO)O2)cc1F`: the IC50 is > 10 µM (inactive). In the case of `CCC1C(=O)OCC1Cc1cncn1C` (stereo unspecified) it was > 10 µM (inactive); in that of `CCOc1ccc2nc3cc(N)ccc3c(N)c2c1`, > 10 µM (inactive); in that of `Cc1c(C)c2c(c(C)c1OC(=O)CCC(=O)O)CC[C@@](C)(CCC[C@H](C)CCC[C@H](C)CCCC(C)C)O2`, > 10 µM (inactive). For `C[C@@H](NCCCc1cccc(C(F)(F)F)c1)c1cccc2ccccc12`, the IC50 is > 10 µM (inactive). In the case of `c1ccc2c(c1)Sc1ccccc1N2CC1CN2CCC1CC2` (stereo unspecified) it was > 10 µM (inactive); in that of `O=C(CCl)c1ccc(Cl)cc1Cl`, 6.17 µM (inactive); in that of `Oc1c(I)cc(I)c2cccnc12`, > 10 µM (inactive).

Turning to `CC(=O)O[C@@]12CO[C@@H]1C[C@H](O)[C@@]1(C)C(=O)[C@H](O)C3=C(C)[C@@H](OC(=O)[C@H](O)[C@@H](NC(=O)OC(C)(C)C)c4ccccc4)C[C@@](O)([C@@H](OC(=O)c4ccccc4)[C@H]21)C3(C)C`, the IC50 was > 10 µM (inactive).

As to `O=C(Nc1ccc(Br)cc1)c1cc(Br)c(Br)s1`, the IC50 was > 10 µM (inactive). Consider `Oc1c(Br)cc(Br)c2cccnc12`, for which the IC50 is > 10 µM (inactive). In the case of `CCCCCCCCCCCCCCCC[N+](C)(C)Cc1ccccc1` it was > 10 µM (inactive). In the case of `COc1cc2c(c(OC)c1OC)-c1ccc(OC)c(=O)cc1[C@@H](NC(C)=O)CC2` it was > 10 µM (inactive). Take `C/C(=N\O)[C@@H](C)NCC(C)(C)CN[C@H](C)/C(C)=N/O`: the IC50 is > 10 µM (inactive).

`O=C(N/N=C/c1ccccc1O)c1ccncc1`: the IC50 was > 10 µM (inactive).

As to `CC(C)CCCC(C)NCCC(C)C` (stereo unspecified), the IC50 was > 10 µM (inactive).

For `Cc1cc(C2CCCCC2)n(O)c(=O)c1`, the IC50 is > 10 µM (inactive). In the case of `Nc1nc(=S)c2[nH]cnc2[nH]1` it was > 10 µM (inactive). In the case of `CCOC(=O)[C@H](CCc1ccccc1)N[C@@H](C)C(=O)N1C(=O)N(C)C[C@H]1C(=O)O` it was > 10 µM (inactive); in that of `O=C(NC1CCN(CCc2c[nH]c3ccccc23)CC1)c1ccccc1`, > 10 µM (inactive).

Consider `Oc1ccc2[nH]cc(CCCCN3CC=C(c4ccccc4)CC3)c2c1`, for which the IC50 is > 10 µM (inactive). On to `CC(=O)NC(=O)c1ccccc1O`, for which the IC50 was > 10 µM (inactive). In the case of `CCCCCCCCCCCCCC[N+](C)(C)C` it was 6.68 µM (inactive); in that of `CCCCC[C@@H](O)CC[C@H]1[C@@H]2Cc3cccc(OCC(=O)O)c3C[C@@H]2C[C@@H]1O`, > 10 µM (inactive); in that of `O[C@@H](CNC[C@H](O)[C@H]1CCc2cc(F)ccc2O1)[C@@H]1CCc2cc(F)ccc2O1`, > 10 µM (inactive). In the case of `COC(=O)CCCCC(CCSS/C(CCO)=C(\C)N(C=O)Cc1cnc(C)nc1N)SC(C)=O` (stereo unspecified) it was > 10 µM (inactive). In the case of `O=C(Nc1ccc(Oc2ccc(Cl)cc2)c(Cl)c1)c1cc(I)cc(I)c1O` it was 6.57 µM (inactive); in that of `CCN(CC)CCCC(C)Nc1c2ccc(Cl)cc2nc2ccc(OC)cc12` (stereo unspecified), > 10 µM (inactive); in that of `COC(=O)C(Cl)C(=O)OC`, > 10 µM (inactive). For `CC(=O)Oc1ccc(C2(c3ccc(OC(C)=O)cc3)Oc3ccccc3NC2=O)cc1`, the IC50 is > 10 µM (inactive). `CN(C)C(=O)Oc1cccc([N+](C)(C)C)c1`: the IC50 is > 10 µM (inactive). In the case of `CCCCCCCC(=O)OCC(COC(=O)CCCCCCC)OC(=O)CCCCCCC` it was > 10 µM (inactive). In the case of `CC(C)=CCCC(C)=CCCC(C)=CCCC=C(C)CCC=C(C)CCC=C(C)C` it was > 10 µM (inactive). In the case of `O=C1NCN(c2ccccc2)C12CCN(CCCC(c1ccc(F)cc1)c1ccc(F)cc1)CC2` it was 8.09 µM (inactive). Turning to `Oc1c(Cl)cc(Cl)c2cccnc12`, the IC50 is > 10 µM (inactive). Consider `O=C1c2ccccc2C(=O)C1C(=O)C(c1ccccc1)c1ccccc1`, for which the IC50 was > 10 µM (inactive). In the case of `CC(=O)N(CC(O)CN(C(C)=O)c1c(I)c(C(=O)NCC(O)CO)c(I)c(C(=O)NCC(O)CO)c1I)c1c(I)c(C(=O)NCC(O)CO)c(I)c(C(=O)NCC(O)CO)c1I` (stereo unspecified) it was > 10 µM (inactive); in that of `CCCCCCCCCCCCCCCCCCCCCC(=O)Nc1ccn([C@@H]2O[C@H](CO)[C@@H](O)[C@H]2O)c(=O)n1`, > 10 µM (inactive). In the case of `CC(C)(CO)[C@@H](O)C(=O)NCCC(=O)NCCSSCCNC(=O)CCNC(=O)[C@H](O)C(C)(C)CO` it was > 10 µM (inactive). Regarding `S=C=Nc1ccc(N=C=S)cc1`, the IC50 was > 10 µM (inactive).

`ClC1=C(Cl)C2(Cl)C(CBr)CC1(Cl)C2(Cl)Cl` (stereo unspecified): the IC50 was 9.97 µM (inactive).

Turning to `C=C(C)[C@H]1Cc2c(ccc3c2O[C@@H]2COc4cc(OC)c(OC)cc4[C@@H]2C3=O)O1`, the IC50 was > 10 µM (inactive).

For `CCN1CCC[C@H]1CNC(=O)c1c(OC)ccc(Br)c1OC`, the IC50 is > 10 µM (inactive). As to `COC(=O)Nc1nc2ccc(S(=O)c3ccccc3)cc2[nH]1` (stereo unspecified), the IC50 was > 10 µM (inactive). On to `CC=CC1C(C(=O)OCc2c(F)c(F)c(COC)c(F)c2F)C1(C)C` (stereo unspecified), for which the IC50 was > 10 µM (inactive). Take `Oc1ccc(Cl)cc1Sc1cc(Cl)ccc1O`: the IC50 is 8.69 µM (inactive). In the case of `COCc1c(C(C)C)nc(C(C)C)c(/C=C/[C@@H](O)C[C@@H](O)CC(=O)O)c1-c1ccc(F)cc1` it was 0.259 µM; in that of `O=S(c1cc(Cl)cc(Cl)c1O)c1cc(Cl)cc(Cl)c1O`, > 10 µM (inactive); in that of `CCCCCCCCCCCC[N+](C)(C)CCOc1ccccc1`, 7.29 µM (inactive). In the case of `CC1=C(C(=O)OC(C)C)C(c2cccc([N+](=O)[O-])c2)C(C(=O)OC2CN(C(c3ccccc3)c3ccccc3)C2)=C(N)N1` (stereo unspecified) it was 7.39 µM (inactive).
